19 compounds from US10030027B2, “Soluble guanylate cyclase stimulators” (MERCK SHARP & DOHME CORP., priority 2015, dated 2018) can be followed below.

What is called Ki is a dissociation constant, usually derived from enzyme kinetics or from competition with a known ligand.

In assay [1] the target is human recombinant sGC enzyme (Homo sapiens (Human), UniProt Q02108+Q02153). Nature of the assay: Size Exclusion Chromatography (SEC) competition binding assay using [3H] Ex-77B as the radioligand. The following applies: [3H] Ex-77B radioligand, 24 hours at 37° C. Put shortly:
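Recombinant human sGC binding measured by competition against tritiated Ex-77B radioligand, with non-specific binding defined by 1 μM unlabeled Ex-77B.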
For orientation: Size exclusion chromatography separates by hydrodynamic size, large species first.

Another assay addresses sGC α1/β1 heterodimer (Homo sapiens (Human), UniProt Q02108+Q02153). Nature of the assay: Cell-based sGC functional assay (cyclic GMP assay for sGC activator: CASA assay). The following applies: CHO-K1/sGC cells; for Emax: CHO-K1, activity expressed as percentage of compound A (standard), read-out: % Activation; for EC50: inflection point, 4P fit, read-out: IP. Put shortly:
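CHO-K1 cells stably expressing sGC α1/β1 were pre-incubated with or without 1 μM DETA-NO (30 min, 25 °C), then exposed to compounds for 1 hr at 37 °C with 0.5 mM IBMX. Intracellular cGMP was read by HTRF and expressed as a percentage of a reference heme-dependent activator's maximum.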

As to `CC(C)(Cn1cc(C2(C)C(=O)Nc3nc(-c4nn(CCC(F)(F)C(F)(F)F)c5cc(Cl)ccc45)nc(N)c32)nn1)C(=O)O` (stereo not drawn) [Example 31B, 3-(4-{4-amino-2-[6-chloro-1-(3,3,4,4,4-pentafluorobutyl)-1H-indazol-3-yl]-5-methyl-6-oxo-6,7-dihydro-5H-pyrrolo[2,3-d]pyrimidin-5-yl}-1H-1,2,3-triazol-1-yl)-2,2-dimethylpropanoic acid], in assay [1], the Ki worked out at 1.41 nM. On sGC α1/β1 heterodimer, the Emax is 130% and the EC50 amounted to 8330 nM.

In the case of `CC1(c2cn(CC3(C(=O)O)CC3)nn2)C(=O)Nc2nc(-c3nn(CCC(F)(F)C(F)(F)F)c4cc(Cl)ccc34)nc(N)c21` (stereo not drawn) [Example 32B, 1-[(4-{4-amino-2-[6-chloro-1-(3,3,4,4,4-pentafluorobutyl)-1H-indazol-3-yl]-5-methyl-6-oxo-6,7-dihydro-5H-pyrrolo[2,3-d]pyrimidin-5-yl}-1H-1,2,3-triazol-1-yl)methyl]cyclopropanecarboxylic acid], the Ki in assay [1] was 1.7 nM. On sGC α1/β1 heterodimer, the Emax came to 79% and the EC50 was found to be 445 nM.

For `CCCCn1nc(-c2nc(N)c3c(n2)NC(=O)C3(C)c2cn(CC(=O)O)nn2)c2ccc(Cl)cc21` (stereo not drawn) [Example 35B, 2-{4-[4-amino-2-(1-butyl-6-chloro-1H-indazol-3-yl)-5-methyl-6-oxo-6,7-dihydro-5H-pyrrolo[2,3-d]pyrimidin-5-yl]-1H-1,2,3-triazol-1-yl}acetic acid], the inhibition constant Ki in assay [1] was 1.12 nM. For the same compound, on sGC α1/β1 heterodimer, the Emax came to 102% and the EC50 came to 2790 nM.

With `CCCCn1nc(-c2nc(N)c3c(n2)NC(=O)C3(C)c2cn(CCC(=O)O)nn2)c2ccc(Cl)cc21` (stereo not drawn) [Example 36B, 3-{4-[4-amino-2-(1-butyl-6-chloro-1H-indazol-3-yl)-5-methyl-6-oxo-6,7-dihydro-5H-pyrrolo[2,3-d]pyrimidin-5-yl]-1H-1,2,3-triazol-1-yl}propanoic acid], in assay [1], the Ki is 0.908 nM. At sGC α1/β1 heterodimer, the Emax came to 105% and the EC50 is 916 nM.

In the case of `CCCCn1nc(-c2nc(N)c3c(n2)NC(=O)C3(C)c2ccc(CC(C)(C)C(=O)O)cc2)c2ccc(Cl)cc21` (stereo not drawn) [Example 37B, 3-{4-[4-amino-2-(1-butyl-6-chloro-1H-indazol-3-yl)-5-methyl-6-oxo-6,7-dihydro-5H-pyrrolo[2,3-d]pyrimidin-5-yl]phenyl}-2,2-dimethylpropanoic acid], the Ki in assay [1] is 0.484 nM. On sGC α1/β1 heterodimer, the Emax is 96% and the EC50 worked out at 762 nM.

Turning to `COCCn1nc(-c2nc(N)c3c(n2)NC(=O)C3(C)c2cccc(CC(C)(C)C(=O)O)c2)c2ccc(Cl)cc21` (stereo not drawn) [Example 39B, 3-(3-{4-amino-2-[6-chloro-1-(2-methoxyethyl)-1H-indazol-3-yl]-5-methyl-6-oxo-6,7-dihydro-5H-pyrrolo[2,3-d]pyrimidin-5-yl}phenyl)-2,2-dimethylpropanoic acid], in assay [1], the Ki was found to be 3.65 nM. On sGC α1/β1 heterodimer, the Emax came to 82% and the EC50 was 1090 nM.

In the case of `C[C@@]1(c2ccc(CCC(=O)O)cc2)C(=O)Nc2nc(-c3nn(CCCC(F)(F)F)c4cc(Cl)ccc34)nc(N)c21` [Example 41B, (S)-3-(4-{4-amino-2-[6-chloro-1-(4,4,4-trifluorobutyl)-1H-indazol-3-yl]-5-methyl-6-oxo-6,7-dihydro-5H-pyrrolo[2,3-d]pyrimidin-5-yl}phenyl)propanoic acid], the Ki in assay [1] was 0.717 nM. In addition, on sGC α1/β1 heterodimer, the Emax was 85% and the EC50 worked out at 779 nM.

As for `CC(C)(Cc1ccc(C2(C)C(=O)Nc3nc(-c4nn(CCCC(F)(F)F)c5cc(Cl)ccc45)nc(N)c32)cc1)C(=O)O` (stereo not drawn) [Example 42B, 3-(4-{4-amino-2-[6-chloro-1-(4,4,4-trifluorobutyl)-1H-indazol-3-yl]-5-methyl-6-oxo-6,7-dihydro-5H-pyrrolo[2,3-d]pyrimidin-5-yl}phenyl)-2,2-dimethylpropanoic acid], the Ki in assay [1] worked out at 0.951 nM. In addition, on sGC α1/β1 heterodimer, the Emax was found to be 84% and the EC50 came to 1050 nM.

As to `CCCCCn1nc(-c2nc(N)c3c(n2)NC(=O)[C@@]3(C)c2ccc(CCC(=O)O)cc2)c2ccc(Cl)cc21` [Example 43B, (S)-3-{4-[4-amino-2-(6-chloro-1-pentyl-1H-indazol-3-yl)-5-methyl-6-oxo-6,7-dihydro-5H-pyrrolo[2,3-d]pyrimidin-5-yl]phenyl}propanoic acid], the Ki in assay [1] turned out to be 0.096 nM. Besides, at sGC α1/β1 heterodimer, the Emax was determined as 105% and the EC50 is 142 nM.

With `C[C@@]1(c2ccc(CCC(=O)O)cc2)C(=O)Nc2nc(-c3nn(Cc4ccccc4F)c4cc(F)ccc34)nc(N)c21` [Example 60B, (S)-3-(4-{4-amino-2-[6-fluoro-1-(2-fluorobenzyl)-1H-indazol-3-yl]-5-methyl-6-oxo-6,7-dihydro-5H-pyrrolo[2,3-d]pyrimidin-5-yl}phenyl)propanoic acid], the Ki in assay [1] was 0.102 nM. Moreover, at sGC α1/β1 heterodimer, the Emax came out at 128% and the EC50 stood at 167 nM.

With `CC1(c2cccc(CCC(=O)O)c2)C(=O)Nc2nc(-c3nn(Cc4ccccc4F)c4cc(F)ccc34)nc(N)c21` (stereo not drawn) [Example 61A, 3-(3-{4-amino-2-[6-fluoro-1-(2-fluorobenzyl)-1H-indazol-3-yl]-5-methyl-6-oxo-6,7-dihydro-5H-pyrrolo[2,3-d]pyrimidin-5-yl}phenyl)propanoic acid], the Ki in assay [1] worked out at 0.066 nM. Also, on sGC α1/β1 heterodimer, the Emax stood at 109% and the EC50 came out at 299 nM.

On to `CC(C)(Cc1csc([C@]2(C)C(=O)Nc3nc(-c4nn(Cc5ccccc5F)c5cc(F)ccc45)nc(N)c32)n1)C(=O)O` [Example 62A, (S)-3-(2-{4-amino-2-[6-fluoro-1-(2-fluorobenzyl)-1H-indazol-3-yl]-5-methyl-6-oxo-6,7-dihydro-5H-pyrrolo[2,3-d]pyrimidin-5-yl}-1,3-thiazol-4-yl)-2,2-dimethylpropanoic acid], for which the inhibitory constant (Ki) in assay [1] was 0.022 nM. Besides, at sGC α1/β1 heterodimer, the Emax turned out to be 148% and the EC50 was found to be 141 nM.

For the compound `Cc1cccc(Cn2nc(-c3nc(N)c4c(n3)NC(=O)[C@@]4(C)c3ccc(CCC(=O)O)cc3)c3ccc(Cl)cc32)c1` [Example 66B, (S)-3-(4-{4-amino-2-[6-chloro-1-(3-methylbenzyl)-1H-indazol-3-yl]-5-methyl-6-oxo-6,7-dihydro-5H-pyrrolo[2,3-d]pyrimidin-5-yl}phenyl)propanoic acid], the Ki in assay [1] was determined as 0.495 nM. For the same compound, on sGC α1/β1 heterodimer, the Emax came to 107% and the EC50 stood at 238 nM.

On to `Cc1ccc(Cn2nc(-c3nc(N)c4c(n3)NC(=O)[C@@]4(C)c3ccc(CCC(=O)O)cc3)c3ccc(Cl)cc32)cc1` [Example 67B, (S)-3-(4-{4-amino-2-[6-chloro-1-(4-methylbenzyl)-1H-indazol-3-yl]-5-methyl-6-oxo-6,7-dihydro-5H-pyrrolo[2,3-d]pyrimidin-5-yl}phenyl)propanoic acid], for which the Ki in assay [1] was 0.154 nM. Also, on sGC α1/β1 heterodimer, the Emax is 115% and the EC50 was 384 nM.

For the compound `Cc1ccccc1Cn1nc(-c2nc(N)c3c(n2)NC(=O)[C@@]3(C)c2ccc(CCC(=O)O)cc2)c2ccc(Cl)cc21` [Example 68B, (S)-3-(4-{4-amino-2-[6-chloro-1-(2-methylbenzyl)-1H-indazol-3-yl]-5-methyl-6-oxo-6,7-dihydro-5H-pyrrolo[2,3-d]pyrimidin-5-yl}phenyl)propanoic acid], in assay [1], the inhibition constant Ki is 3.1 nM. Also, on sGC α1/β1 heterodimer, the Emax is 109% and the EC50 came to 568 nM.

As to `C[C@@]1(c2ccc(CCC(=O)O)cc2)C(=O)Nc2nc(-c3nn(Cc4cccc(F)c4)c4cc(Cl)ccc34)nc(N)c21` [Example 69B, (S)-3-(4-{4-amino-2-[6-chloro-1-(3-fluorobenzyl)-1H-indazol-3-yl]-5-methyl-6-oxo-6,7-dihydro-5H-pyrrolo[2,3-d]pyrimidin-5-yl}phenyl)propanoic acid], the Ki in assay [1] is 0.101 nM. Moreover, at sGC α1/β1 heterodimer, the Emax came out at 139% and the EC50 amounted to 289 nM.

On to `Cc1nc([C@]2(C)C(=O)Nc3nc(-c4nn(CCC(F)(F)C(F)(F)F)c5ncccc45)nc(N)c32)sc1CC(=O)O` [Example 83B, (S)-(2-{4-amino-5-methyl-6-oxo-2-[1-(3,3,4,4,4-pentafluorobutyl)-1H-pyrazolo[3,4-b]pyridin-3-yl]-6,7-dihydro-5H-pyrrolo[2,3-d]pyrimidin-5-yl}-4-methyl-1,3-thiazol-5-yl)acetic acid], for which, in assay [1], the Ki came to 1.74 nM. Moreover, at sGC α1/β1 heterodimer, the Emax came to 80% and the EC50 came out at 1420 nM.

For the compound `CC(C)(Cc1csc(C2(C)C(=O)Nc3nc(-c4nn(CCC(F)(F)F)c5ncc(F)cc45)nc(N)c32)n1)C(=O)O` (stereo not drawn) [Example 85A, 3-(2-{4-amino-2-[5-fluoro-1-(3,3,3-trifluoropropyl)-1H-pyrazolo[3,4-b]pyridin-3-yl]-5-methyl-6-oxo-6,7-dihydro-5H-pyrrolo[2,3-d]pyrimidin-5-yl}-1,3-thiazol-4-yl)-2,2-dimethylpropanoic acid], in assay [1], the Ki was determined as 1.5 nM. Also, on sGC α1/β1 heterodimer, the Emax worked out at 130% and the EC50 was 700 nM.

On to `CC(C)(Cc1csc([C@]2(C)C(=O)Nc3nc(-c4nn(CCCC(F)(F)F)c5ncccc45)nc(N)c32)n1)C(=O)O` [Example 87B, (S)-3-(2-{4-amino-5-methyl-6-oxo-2-[1-(4,4,4-trifluorobutyl)-1H-pyrazolo[3,4-b]pyridin-3-yl]-6,7-dihydro-5H-pyrrolo[2,3-d]pyrimidin-5-yl}-1,3-thiazol-4-yl)-2,2-dimethylpropanoic acid], for which the Ki in assay [1] was 0.785 nM. Besides, at sGC α1/β1 heterodimer, the Emax stood at 97% and the EC50 is 547 nM.
